Test results taken from ChEMBL document CHEMBL3112491, “3-(5-)-Amino-o-diarylisoxazoles: regioselective synthesis and antitubulin activity” (2014).

How the values were obtained:
Type in all cases: functional
HL-60(TB) = test: Growth inhibition of human HL-60(TB) cells after 48 hrs by sulforhodamine B assay; conditions: HL-60, 48 h
SNB-19 = test: Growth inhibition of human SNB19 cells after 48 hrs by sulforhodamine B assay; conditions: SNB-19, 48 h
SR = test: Growth inhibition of human SR cells after 48 hrs by sulforhodamine B assay
[1] = Growth inhibition of human UACC257 cells after 48 hrs by sulforhodamine B assay; conditions: UACC-257, 48 h
SF-295 = test: Growth inhibition of human SF295 cells after 48 hrs by sulforhodamine B assay; conditions: SF-295, 48 h
[2] = Growth inhibition of human OVCAR4 cells after 48 hrs by sulforhodamine B assay; conditions: OVCAR-4, 48 h
NCI-H23 = test: Growth inhibition of human NCI-H23 cells after 48 hrs by sulforhodamine B assay; conditions: NCI-H23, 48 h
SK-MEL-5 = test: Growth inhibition of human SK-MEL-5 cells after 48 hrs by sulforhodamine B assay; conditions: SK-MEL-5, 48 h
U-251 = test: Growth inhibition of human U251 cells after 48 hrs by sulforhodamine B assay; conditions: U-251, 48 h
NCI-H522 = test: Growth inhibition of human NCI-H522 cells after 48 hrs by sulforhodamine B assay; conditions: NCI-H522, 48 h
[3] = Growth inhibition of human SF539 cells after 48 hrs by sulforhodamine B assay; conditions: SF-539, 48 h
LOX IMVI = test: Growth inhibition of human LOXIMVI cells after 48 hrs by sulforhodamine B assay
MDA-MB-435 = test: Growth inhibition of human MDA-MB-435 cells after 48 hrs by sulforhodamine B assay; conditions: MDA-MB-435, 48 h
COLO 205 = test: Growth inhibition of human COLO205 cells after 48 hrs by sulforhodamine B assay; conditions: COLO 205, 48 h
[4] = Growth inhibition of human OVCAR5 cells after 48 hrs by sulforhodamine B assay; conditions: OVCAR-5, 48 h
ACHN = test: Growth inhibition of human ACHN cells after 48 hrs by sulforhodamine B assay
NCI-H226 = test: Growth inhibition of human NCI-H226 cells after 48 hrs by sulforhodamine B assay; conditions: NCI-H226, 48 h
NCI-H322M = test: Growth inhibition of human NCI-H322M cells after 48 hrs by sulforhodamine B assay
SW-620 = test: Growth inhibition of human SW620 cells after 48 hrs by sulforhodamine B assay; conditions: SW-620, 48 h
786-0 = test: Growth inhibition of human 786-0 cells after 48 hrs by sulforhodamine B assay; conditions: 786-0, 48 h
HOP-62 = test: Growth inhibition of human HOP62 cells after 48 hrs by sulforhodamine B assay; conditions: HOP-62, 48 h
Paracentrotus lividus [5] = test: Antimitotic activity in sea urchin fertilized egg assessed as cleavage arrest treated at 8 to 20 mins post-fertilization measured at 2.5 to 5.5 hrs post-fertilization
PC-3 = test: Growth inhibition of human PC3 cells after 48 hrs by sulforhodamine B assay; conditions: PC-3, 48 h
Malme-3M = test: Growth inhibition of human MALME-3M cells after 48 hrs by sulforhodamine B assay
OVCAR-3 = test: Growth inhibition of human OVCAR3 cells after 48 hrs by sulforhodamine B assay; conditions: OVCAR-3, 48 h
HCT-116 = test: Growth inhibition of human HCT116 cells after 48 hrs by sulforhodamine B assay; conditions: HCT-116, 48 h
[6] = Growth inhibition of human Hs 578T cells after 48 hrs by sulforhodamine B assay
KM12 = test: Growth inhibition of human KM12 cells after 48 hrs by sulforhodamine B assay; conditions: KM12, 48 h
SF-268 = test: Growth inhibition of human SF268 cells after 48 hrs by sulforhodamine B assay; conditions: SF-268, 48 h
IGROV-1 = test: Growth inhibition of human IGROV1 cells after 48 hrs by sulforhodamine B assay; conditions: IGROV-1, 48 h
SK-OV-3 = test: Growth inhibition of human SKOV3 cells after 48 hrs by sulforhodamine B assay; conditions: SK-OV-3, 48 h
MDA-MB-468 = test: Growth inhibition of human MDA-MB-468 cells after 48 hrs by sulforhodamine B assay; conditions: MDA-MB-468, 48 h
A549 = test: Growth inhibition of human A549/ATCC cells after 48 hrs by sulforhodamine B assay; conditions: A549, 48 h
SNB-75 = test: Growth inhibition of human SNB75 cells after 48 hrs by sulforhodamine B assay; conditions: SNB-75, 48 h
MCF7 = test: Growth inhibition of human MCF7 cells after 48 hrs by sulforhodamine B assay; conditions: MCF7, 48 h
BT-549 = test: Growth inhibition of human BT549 cells after 48 hrs by sulforhodamine B assay; conditions: BT-549, 48 h
TK-10 = test: Growth inhibition of human TK10 cells after 48 hrs by sulforhodamine B assay; conditions: TK-10, 48 h
[7] = Growth inhibition of human UO31 cells after 48 hrs by sulforhodamine B assay; conditions: UO-31, 48 h
SN12C = test: Growth inhibition of human SN12C cells after 48 hrs by sulforhodamine B assay
UACC-62 = test: Growth inhibition of human UACC62 cells after 48 hrs by sulforhodamine B assay; conditions: UACC-62, 48 h
HCT-15 = test: Growth inhibition of human HCT15 cells after 48 hrs by sulforhodamine B assay; conditions: HCT-15, 48 h
Paracentrotus lividus [8] = test: Antimitotic activity in sea urchin fertilized egg assessed as cleavage alteration treated at 8 to 20 mins post-fertilization measured at 2.5 to 5.5 hrs post-fertilization
NCI-H460 = test: Growth inhibition of human NCI-H460 cells after 48 hrs by sulforhodamine B assay; conditions: NCI-H460, 48 h
[9] = Growth inhibition of human EKVX cells after 48 hrs by sulforhodamine B assay
M14 = test: Growth inhibition of human M14 cells after 48 hrs by sulforhodamine B assay; conditions: M14, 48 h
[10] = Growth inhibition of human HOP92 cells after 48 hrs by sulforhodamine B assay; conditions: HOP-92, 48 h
MDA-MB-231 = test: Growth inhibition of human MDA-MB-231 cells after 48 hrs by sulforhodamine B assay; conditions: MDA-MB-231, 48 h
DU-145 = test: Growth inhibition of human DU145 cells after 48 hrs by sulforhodamine B assay; conditions: DU-145, 48 h
Paracentrotus lividus [11] = test: Microtubule destabilizing activity in sea urchin free-swimming blastula assessed as embryo spinning treated at 9 to 10 hrs post-fertilization measured after 0.15 to 15 hrs
A498 = test: Growth inhibition of human A498 cells after 48 hrs by sulforhodamine B assay; conditions: A498, 48 h
[12] = Growth inhibition of human NCI-ADR-RES cells after 48 hrs by sulforhodamine B assay
MOLT-4 = test: Growth inhibition of human MOLT4 cells after 48 hrs by sulforhodamine B assay; conditions: MOLT-4, 48 h
SK-MEL-2 = test: Growth inhibition of human SK-MEL-2 cells after 48 hrs by sulforhodamine B assay; conditions: SK-MEL-2, 48 h
[13] = Growth inhibition of human HCC2998 cells after 48 hrs by sulforhodamine B assay; conditions: HCC 2998, 48 h
HT-29 = test: Growth inhibition of human HT-29 cells after 48 hrs by sulforhodamine B assay; conditions: HT-29, 48 h
OVCAR-8 = test: Growth inhibition of human OVCAR8 cells after 48 hrs by sulforhodamine B assay; conditions: OVCAR-8, 48 h

## COc1ccc(-c2c(-c3cc(OC)c(OC)c(OC)c3)noc2N)cc1
HL-60(TB)
  GI50: < 10 nM
SNB-19
  GI50: 25.1 nM
SR
  GI50: < 10 nM
[1]
  GI50: < 10 nM
SF-295
  GI50: < 10 nM
[2]
  GI50: 14.5 nM
NCI-H23
  GI50: 14.9 nM
SK-MEL-5
  GI50: < 10 nM
U-251
  GI50: < 10 nM
NCI-H522
  GI50: < 10 nM
[3]
  GI50: < 10 nM
LOX IMVI
  GI50: < 10 nM
MDA-MB-435
  GI50: < 10 nM
COLO 205
  GI50: < 10 nM
[4]
  GI50: 46.6 nM
ACHN
  GI50: < 10 nM
NCI-H226
  GI50: 24.4 nM
NCI-H322M
  GI50: 56.7 nM
SW-620
  GI50: < 10 nM
786-0
  GI50: < 10 nM
HOP-62
  GI50: 14.4 nM
Paracentrotus lividus [5]
  EC: 0.005 µM
PC-3
  GI50: < 10 nM
Malme-3M
  GI50: 13400 nM
OVCAR-3
  GI50: < 10 nM
HCT-116
  GI50: < 10 nM
[6]
  GI50: < 10 nM
KM12
  GI50: < 10 nM
SF-268
  GI50: < 10 nM
IGROV-1
  GI50: 10.6 nM
SK-OV-3
  GI50: < 10 nM
MDA-MB-468
  GI50: < 10 nM
A549
  GI50: < 10 nM
SNB-75
  GI50: < 10 nM
MCF7
  GI50: < 10 nM
BT-549
  GI50: 19.3 nM
TK-10
  GI50: 10500 nM
[7]
  GI50: < 10 nM
SN12C
  GI50: 32.8 nM
UACC-62
  GI50: < 10 nM
HCT-15
  GI50: < 10 nM
Paracentrotus lividus [8]
  EC: 0.002 µM
NCI-H460
  GI50: < 10 nM
[9]
  GI50: 15200 nM
M14
  GI50: < 10 nM
[10]
  GI50: < 10 nM
MDA-MB-231
  GI50: 31.9 nM
DU-145
  GI50: 13.5 nM
Paracentrotus lividus [11]
  EC: 0.5 µM
A498
  GI50: < 10 nM
[12]
  GI50: < 10 nM
MOLT-4
  GI50: 27.4 nM
SK-MEL-2
  GI50: 18.8 nM
[13]
  GI50: 15.1 nM
HT-29
  GI50: < 10 nM
OVCAR-8
  GI50: 13.9 nM
